According to the NIST ThermoML archive (doi:10.1016/j.fluid.2015.06.045):
“And” between values parts separate entries of the source, which are not always exact repeats. Identical values can stand only once.

Key:
[1] = molar heat capacity at constant pressure
[2] = Liquid, Closed cell (Static) method

CN1CCCC1=O [N-methylpyrrolidone]
[1], 100 kPa, Ideal gas
Conditions | molar heat capacity at constant pressure [J/K/mol]
100 K | 59.31
150 K | 72.28
200 K | 85.04
250 K | 99.6
273.15 K | 106.98
298.15 K | 115.26
300 K | 115.89
400 K | 149.87
500 K | 180.98
600 K | 207.43
700 K | 229.6
800 K | 248.26
900 K | 264.08
1000 K | 277.55

[1], 101.33 kPa, Liquid, Large sample (1 g) DSC
Conditions | molar heat capacity at constant pressure
265.75 K | 168.2 J/K/mol and 168.12 J/K/mol
270.85 K | 169.2 J/K/mol and 169.03 J/K/mol
275.96 K | 169.62 J/K/mol and 169.86 J/K/mol
281.07 K | 170.95 J/K/mol and 170.78 J/K/mol
286.17 K | 171.86 J/K/mol
291.28 K | 173.36 J/K/mol and 172.86 J/K/mol
296.38 K | 173.94 J/K/mol and 174.27 J/K/mol
301.49 K | 175.35 J/K/mol and 175.52 J/K/mol
306.59 K | 176.52 J/K/mol
311.69 K | 177.93 J/K/mol and 177.85 J/K/mol
316.8 K | 178.93 J/K/mol and 179.09 J/K/mol
321.9 K | 180.01 J/K/mol and 180.42 J/K/mol
327.01 K | 181.84 J/K/mol and 181.75 J/K/mol
332.12 K | 183.25 J/K/mol
337.22 K | 184.41 J/K/mol and 184.66 J/K/mol
342.33 K | 185.75 J/K/mol and 186.16 J/K/mol
347.43 K | 187.24 J/K/mol
352.54 K | 188.57 J/K/mol and 188.82 J/K/mol

[2]
Conditions | vapor or sublimation pressure
273.65 K | 0.00631 kPa and 0.0063 kPa
278.15 K | 0.0094 kPa and 0.00937 kPa and 0.00938 kPa
283.15 K | 0.01432 kPa
288.15 K | 0.02159 kPa and 0.02162 kPa
293.15 K | 0.03193 kPa and 0.03195 kPa and 0.03196 kPa
298.15 K | 0.04664 kPa and 0.04665 kPa and 0.0466 kPa
303.15 K | 0.06708 kPa and 0.06709 kPa
308.15 K | 0.09518 kPa and 0.09516 kPa
308.17 K | 0.0951 kPa
